The subject of test [1] is rat oligodendrocyte progenitor CG4 line. Briefly: Differentiation assay on rat oligodendrocyte progenitor CG4 line (HCS, mCherry+). The test is classed as cell-based. The following applies: secondary screen of 49 selected compounds, 1 μM, 5 days. The text has this: Primary validation on CG4 line toxicity and differentiation. An innovative OPC line was developed for fast and reliable high content screening (HCS) of small compounds inducing oligodendrocyte differentiation. The line was genetically engineered by lentiviral transduction of rat CG4 cells (PubMed=1613821; DOI=10.1002/jnr.490310125; Louis J. C., Magal E., Muir D., Manthorpe M., Varon S.; CG-4, a new bipotential glial cell line from rat brain, is capable of differentiating in vitro into either mature oligodendrocytes or type-2 astrocytes. J. Neurosci. Res. 31:193-204(1992) to express mCherry fluorescent reporter (Evercooren, Anne & Avellana-Adalid, V. & Vitry, Sandrine & Nait-Oumesmar, Brahim & Lachapelle, Francois. (1997). Expansion of Oligodendrocyte Progenitors for Myelin Repair. 10.1007/978-1-4615-5949-8_21) in mature oligodendrocytes only, and EGFP at all stage of the oligodendroglial lineage: both the generation of mature oligodendrocytes (wmNl-mCherry) and the morphological changes associated with differentiation (CMV-EGFP) can be therefore monitored in a single assay. mCherry expression occurred only in O4+/GalC+ differentiated oligodendrocytes and GFP was ubiquitously expressed at all developmental stages. The line so obtained was validated using compounds with well-established effects on oligodendrocyte differentiation (cAMP and T3). Cell-based assay was standardized on the HCS platform (ArrayScanXTI, Brain and Spine Institute (Paris), validating the pro-differentiation effects of clemastine^27 and 9cis-retinoic acid.^28 For HCS validation of 274 compounds identified through in silico screen, double-fluo CG4 line cells were plated in 96 well-plates, 6500 cells/cm^2 and left for 24 h in proliferation. The other day, compounds were added (1 μM) for next 5 days of differentiation, with ⅔ medium changed after 3 days. 9-cis Retinoic Acid (9cis-RA; […]) served as a positive control, negative controls were basal (N1) medium and vehicle (basal+0.1% DMSO). Each compound was tested in triplicate and were imaged with ArrayScanXTI system (35 fields/well) after 5 days of differentiation.
FIG. 4 provides a schematic representation of High Content Screening (HCS) validation of the 274 compounds identified through in silico screening using CG4 line. […] In addition, the whole short list of 160 non-toxic compounds were screened using the CG4 high content phenotypic assay to further confirm the data from primary screening and to potentially select additional compounds with pro-myelinating activities. From this screening of the short list, 49 hit compounds were identified that increase differentiation either of CG4 cells or primary OPCs (FIG. 6).

The test system of test [2] is human iPS-derived neuroprecursors. The experiment in a line: Differentiation of human iPS-derived neuroprecursors into MBP+ oligodendrocytes. Type of test: cell-based. Particulars: 1 μM in minimal medium, p<0.05. The source says:
NPC bearing a doxycycline inducible polycistronic construct containing SOX10, OLIG2 and NKX6.2^29 in a human safe harbor (passages 10 to 25) were singularized on day −3 by treatment with Accutase and plated on Matrigel-coated 12-well plates at a density of 100.000 cells per well in N2B27-medium containing equal parts of neurobasal (Invitrogen) and DMEM-F12 medium (Invitrogen) with 1:100 B27 supplement lacking vitamin A (Invitrogen), 1:200 N2 supplement (Invitrogen), 1% penicillin/streptomycin/glutamine (PSG), 3 μM CHIR99021 (Axon Medchem), 150 μM ascorbic acid and 0.5 μM SAG. The next day medium was changed to N2B27-medium containing 1 μg/ml doxycycline. On DO medium was changed to glial-induction medium (GIM) consisting of DMEM-F12 with 1:100 B27 supplement lacking vitamin A, 1:200 N2 supplement, 1% PSG, 1 μM SAG, 10 ng/mL NT3 (Peprotech), 10 ng/mL IGF-I (Peprotech), 200 μM AA (Sigma), 1:1000 Trace Elements B (Corning). For full medium conditions 10 ng/ml T3 was added. On Day 2 medium was changed to glial-differentiation medium (GDM) comprising DMEM-F12 with 1:100 B27 supplement lacking vitamin A, 1:200 N2 supplement, 1% PSG, 100 μM dbCAMP (Sigma), 100 μM AA, 1:1000. For full medium conditions 60 ng/mL T3, Trace Elements B 10 ng/mL, IGF-I, 10 ng/mL and NT3 were added to the culture. GDM was changed every other day. On day 7 cells were detached by treatment with Accutase and re-plated on laminin coated 48-well plates at densities of 10.000-12.000 cells per well. After 24 h cells were treated in minimal medium with either vehicle alone [0.01% (vol/vol) DMSO] as a negative control, 60 ng/mL T3 as a positive control, or with a drug candidate dissolved in DMSO. Medium was changed every other day. On D16 doxycycline was removed from the medium. Cells were fixed on D21 and analyzed via immunocytochemistry.
Immunocytochemistry. Cells were initially fixed with 4% PFA treatment for 20 min, RT. Following three washes with PBS cells were incubated with blocking solution containing 5% normal goat serum (NGS) and 5% FCS (fetal calf serum) in PBS for 30 min at RT to prevent unspecific binding of the antibodies. To detect intracellular antigens cells were permeabilized by adding 0.5% Triton X-100 to the Blocking-solution. Cells treated with Triton X-100 were washed three times with PBS each time for 5 min at RT. Primary antibodies (rat anti-MBP,1:50, Abcam, AB7349) were applied overnight, 4° C., in blocking solution. The next day cells were washed 3 times with PBS at RT, and afterwards incubated with secondary antibodies (AF488 Alexa Fluor anti-rat (goat), 1:500, Jackson/Dianova, #112-545-167) diluted in PBS for 1 h at RT. Secondary antibodies were subsequently removed by washing 3 times with PBS. Afterwards PBS containing a Dapi staining for nuclei was added for 5 minutes and afterwards washed off with PBS. Cells were kept at 4° C. until imaging.
Imaging and evaluation. From each condition (triplicates) 20-30 pictures were taken randomly chosen by the Dapi-signal. Cell numbers were determined by using an ImageJ Macro to count the nuclei whereas MBP positive cells were subsequently counted manually in black and white images.
The effect on oligodendroglial differentiation of 32 compounds (“Front runners”) was tested. Induced pluripotent stem cells in which the transcription factors SOX10, OLIG2, NKX6.2 were inserted in a doxycycline inducible manner into a human safe harbor were differentiated into neural stem cells. Differentiation into oligodendrocytes was induced by addition of doxycycline. Cells were cultured either in a minimal medium (MM) (negative control) or in MM with the different compounds at a concentration of 1 μM. Addition of T3 to the minimal medium served as a positive control.

Test [3] concerns primary murine spinal cord culture. Briefly: Myelinating cell cultures from primary murine spinal cord. Type of test: cell-based, mouse. The following applies: 1 μM. The protocol:
Single cell suspensions are prepared from spinal cord of mouse embryos (E13) (adapted from Thomson, 2008) and 1.5×10^5 cells/well were plated into 96 well plates. Over time, these cultures mature and form axons, which later myelinate. Using spinal cord tissue facilitates the quantification of mature MBP+ oligodendrocytes and newly formed myelin by in-house high-content imaging system (Operetta High Content Imaging System, Perkin Elmer) with a 20× lens. From each well, 25 fields in a 5×5 matrix were scanned. Thirty-two “Front Runners” compounds were tested in replicates of five at 1 μM/DMSO, while T3, benzotropine and clemastine were used as positive controls, DMSO as negative/solvent control. Two experimental paradigms were applied: “Early treatment”: exposure to experimental agent from DIV7 to DIV14; “Late treatment”: exposure to experimental agent from DIV14-DIV21. On DIV21, cultures were fixed and stained (myelin: MBP, axons: NF200; nuclei: Hoechst). Imaging data were analysed using CellProfiler and in-house generated analysis pipeline.
Thirty-two “Front Runners” compounds were tested in replicates of five at 1 μM/DMSO, while T3, benztropine and clemastine were used as positive controls, DMSO as negative/solvent control. Two experimental paradigms were applied: “Early treatment”: exposure to experimental agent from DIV7 to DIV14; “Late treatment”: exposure to experimental agent from DIV14-DIV21. […] In “Late treatment” paradigm in myelin area evaluation were identified Vanoxerine, Roxadustat, Tamibarotene, Drinabant, Progesterone, Saracatinib. In quantification of myelinated axons were identified Vanoxerine, Drinabant, Roxadustat.

The test system of test [4] is rat primary OPC cultures. Briefly: Differentiation of rat primary OPC into MBP+ OLs. Type of test: cell-based. Particulars: 96 h, 4 days of differentiation, read-out: MBP+ differentiation (MBP+/SOX10+ OLs plus compounds / plus basal medium). The protocol:
Secondary validation on primary rat OPC differentiation. Re-validation of the best performing compounds promoting OPC differentiation (fold change >1.5) was performed on primary rat OPC cultures in 96 well-plate run in triplicates by triple immunolabeling for CNPase, MBP and SOX10 as a readout. Compounds at […] were added for 4 days of differentiation and then cell cultures were imaged with ArrayScanXTI platform, number of MBP+OLs were quantified by semi-automated software. Basal medium served as a negative control, 9 cis-RA ([…]) was a positive control.
Re-validation of the 49 compounds selected from the short list (160 compounds) using rat primary OPC cultures (compounds tested in triplicates in 3 independent experiments. The secondary validation screen of these compounds performed on rat primary OPC cultures selected 17 best lead compounds with a pro-differentiation activity (MBP+/SOX10+OLs plus compounds/MBP+SOX10+ plus basal medium fold increase) induced a strong differentiation into MBP+OLs (fold increase >1.6). Results are shown in FIG. 7.

For `CCNC(=O)C1CC(F)(c2ccc(CN3CCCC3)c(F)c2)C1` (stereo not drawn) [PF-03654746], in test [1], the “CG4 differentiation compared with 9cis-RA positive control” value (“CG4 differentiation” for short) is “promoting differentiation significantly higher than 9cis-RA positive control”. Besides, in test [2], the “differentiation into MBP+ oligodendrocytes” value is on record as “promote significantly (p<0.05) the differentiation into MBP+ oligodendrocytes”. The myelin area entry in test [3] (Early treatment DIV7 to DIV14) is “identified”.

`CCC/N=C1\S/C(=C\c2ccc(OC[C@H](O)CO)c(Cl)c2)C(=O)N1c1ccccc1C` [Ponesimod]: the “CG4 differentiation” value in test [1] is given as “promoting differentiation significantly higher than 9cis-RA positive control”. The “differentiation into MBP+ oligodendrocytes” value in test [2] is “promote significantly (p<0.05) the differentiation into MBP+ oligodendrocytes”. The myelin area entry in test [3] (Early treatment DIV7 to DIV14) is “identified”.

For the compound `CS(=O)(=O)N(c1cc(F)cc(F)c1)C1CN(C(c2ccc(Cl)cc2)c2ccc(Cl)cc2)C1` [Drinabant], the “CG4 differentiation” value in test [1] was “promoting differentiation significantly higher than 9cis-RA positive control”. Further, the “differentiation into MBP+ oligodendrocytes” value in test [2] is “promote significantly the differentiation into MBP+ oligodendrocytes”; in test [2] (listed as Drinibant), “promote significantly (p<0.05) the differentiation into MBP+ oligodendrocytes”. For the same compound, the myelin area result in test [3] (Early treatment DIV7 to DIV14) and in test [3] (Late treatment DIV14-DIV21) was “identified” each time. The “quantification of myelinated axons” value in test [3] (Late treatment DIV14-DIV21) was “identified”.

On to `Fc1ccc(C(OCCN2CCN(CCCc3ccccc3)CC2)c2ccc(F)cc2)cc1` [Vanoxerine], for which the “CG4 differentiation” value in test [1] is on record as “promoting differentiation significantly higher than 9cis-RA positive control”. Also, in test [3] (Early treatment DIV7 to DIV14), the myelin area entry is recorded as “identified” and the “quantification of myelinated axons” value is listed as “identified”. In addition, in test [3] (Late treatment DIV14-DIV21), the myelin area entry is “identified” and the “quantification of myelinated axons” value was “identified”.

Turning to `Cc1ccc(C(=O)Nc2ccc(Oc3cc4cnn(C)c4cc3-c3cn[nH]c3)c(F)c2)c(=O)n1-c1ccc(F)cc1` [Merestinib], the “CG4 differentiation” value in test [1] was “promoting differentiation significantly higher than 9cis-RA positive control”. Also, in test [2], the “differentiation into MBP+ oligodendrocytes” value is “promote significantly (p<0.05) the differentiation into MBP+ oligodendrocytes”.

Consider `Cc1c(F)cccc1NC(=O)Nc1ccc(Cl)c(S(=O)(=O)[C@H]2CCCNC2)c1O` [Danirixin], for which the “CG4 differentiation” value in test [1] is recorded as “promoting differentiation significantly higher than 9cis-RA positive control”. The “differentiation into MBP+ oligodendrocytes” value in test [2] is given as “promote significantly (p<0.05) the differentiation into MBP+ oligodendrocytes”.

Consider `CNC(=O)c1cc(COc2nnc(Nc3ccc(Cl)cc3)c3ccoc23)ccn1` [Telatinib], for which, in test [1], the “CG4 differentiation” value is given as “promoting differentiation significantly higher than 9cis-RA positive control”. Also, the fold induction at 1 µM in test [4] is > 1.6. Further, in test [2], the “differentiation into MBP+ oligodendrocytes” value is “promote significantly (p<0.05) the differentiation into MBP+ oligodendrocytes”.

Values taken from patent publication US20240148745A1, “COMPOUNDS FOR USE IN PROGRESSIVE MULTIPLE SCLEROSIS” (FONDAZIONE CENTRO SAN RAFFAELE, priority 2021, published 2024).
